Experiment: Stability of Form 2 of Compound 1 under storage conditions (impurities by UPLC, solid form by XRPD)
Format: physicochemical
Settings: for Storage stability: up to 6 months
Description: To measure stability of the Form 2 of Compound 1 under storage conditions, samples of Form 2 of Compound 1 were placed in double low-density polyethylene bags with desiccant between the bags and each was placed into a high-density polyethylene drum. One drum was stored at a temperature of 25° C. and 60% relative humidity (RH), and a second drum was stored at a temperature of 40° C. and 75% RH. Samples of the material were taken from both drums at 1 month, 3 months, and 6 months and the samples were analyzed for the presence of impurities. The amount of the Form 2 of Compound 1, and the amount of any impurities, in each sample was measured by ultra-performance liquid chromatography (UPLC) using the test conditions set and solvent gradients forth in Table 5 and Table 6. The samples were tested to determine the amount remaining of Form 2 at each time point, and the measurements were conducted by x-ray powder diffraction (XRPD) according to USP <941>.

[1] = 25° C. and 60% RH, Initial (Time = zero)
[2] = 40° C. and at 75% RH, Initial (Time = zero)

- Total impurities present (% area measured by UPLC) [1]: 1.4 % area
- XRPD [1]: Crystalline
- Total impurities present (% area measured by UPLC) (25° C. and 60% RH, Time = 1 month): 1.4 % area
- XRPD (25° C. and 60% RH, Time = 1 month, consistent with T = 0): Crystalline
- Total impurities present (% area measured by UPLC) (25° C. and 60% RH, Time = 3 months): 1.4 % area
- XRPD (25° C. and 60% RH, Time = 3 months, consistent with T = 0): Crystalline
- Total impurities present (% area measured by UPLC) (25° C. and 60% RH, Time = 6 months): 1.4 % area
- XRPD (25° C. and 60% RH, Time = 6 months, consistent with T = 0): Crystalline
- Total impurities present (% area measured by UPLC) [2]: 1.4 % area
- XRPD [2]: Crystalline
- Total impurities present (% area measured by UPLC) (40° C. and at 75% RH, Time = 1 month): 1.4 % area
- XRPD (40° C. and at 75% RH, Time = 1 month, consistent with T = 0): Crystalline
- Total impurities present (% area measured by UPLC) (40° C. and at 75% RH, Time = 3 months): 1.4 % area
- XRPD (40° C. and at 75% RH, Time = 3 months, consistent with T = 0): Crystalline
- Total impurities present (% area measured by UPLC) (40° C. and at 75% RH, Time = 6 months): 1.4 % area
- XRPD (40° C. and at 75% RH, Time = 6 months, consistent with T = 0): Crystalline
- Storage stability (stored at 25° C. and 60% RH): stable
- Storage stability (stored at 40° C. and at 75% RH): stable
Structure (SMILES): Cc1cc(CN(C)C)ccc1-c1cnc(NCc2c(F)ccc3c2CCO3)n2cc(C#N)nc12 [Form 2 of Compound 1, 8-(4-((dimethylamino)methyl)-2-methylphenyl)-5-(((5-fluoro-2,3-dihydrobenzofuran-4-yl)methyl)amino)imidazo[1,2-c]pyrimidine-2-carbonitrile]
